Patent US20240393292A1, “ALLERGY ANTIGEN AND EPITOPE THEREOF” (HOYU CO., LTD., priority 2019, published 2024)

Test system: IgE antibodies from patients
Assay: Wheat epitope mapping (2): overlapping 10-amino-acid peptide fragments shifted by one amino acid
Assay type: binding, human
Details: for Epitope sequence binding to IgE antibody, rank of the sequence (Key/Preferably/More preferably/Further preferably): serum of patient P50 (child, general immediate type allergy to wheat); for Epitope sequence binding to IgE antibody, rank of the sequence (Key/Preferably/More preferably/Further preferably) / Epitope sequence binding to IgE antibody, rank of the sequence (Key/Preferably/More preferably): sequence without X; for Epitope sequence binding to IgE antibody, rank of the sequence: partial sequence
How it was run: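 Cellulose-bound 10-mer peptides offset by one residue were probed with patient serum IgE and detected by chemiluminescence. Secondary-antibody-only signals were subtracted per peptide. Residual binding was expressed as % of the parent overlapping peptide, scored as none (<30%), poor (30–<50%), somewhat poor (50–<70%) or retained (≥70%).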

[1] = serum of patient P52 (child, general immediate type allergy to wheat)
[2] = serum of patient G7 (adult, general immediate type allergy to wheat)

2406 (TEIVL; REGION 1..5: note = epitope) [compound 2406]
Epitope sequence binding to IgE antibody, rank of the sequence (Key/Preferably/More preferably/Further preferably): Preferably

2411 (TEIVL; REGION 1..5: note = epitope) [compound 2411]
Epitope sequence binding to IgE antibody, rank of the sequence (Key/Preferably/More preferably) [1]: Preferably

2415 (IDRCAYV; REGION 1..7: note = epitope) [compound 2415]
Epitope sequence binding to IgE antibody, rank of the sequence (Key/Preferably/More preferably) [2]: Preferably

2417 (RCAYVTEIVL; REGION 1..10: note = epitope) [compound 2417]
Epitope sequence binding to IgE antibody, rank of the sequence (Key/Preferably/More preferably) [2]: Preferably

2418 (TEIVL; REGION 1..5: note = epitope) [compound 2418]
Epitope sequence binding to IgE antibody, rank of the sequence (Key/Preferably/More preferably) [2]: Key

2423 (AWSGKTEN; REGION 1..8: note = epitope) [compound 2423]
Epitope sequence binding to IgE antibody, rank of the sequence (Key/Preferably/More preferably) (serum of patient P12 (WDEIA)): More preferably

2424 (AWSGK; REGION 1..5: note = epitope) [compound 2424]
Epitope sequence binding to IgE antibody, rank of the sequence (Key/Preferably/More preferably) (serum of patient P12 (WDEIA)): Preferably

2432 (QSTLKAWSGK; REGION 1..10: note = epitope) [compound 2432]
Epitope sequence binding to IgE antibody, rank of the sequence (Key/Preferably/More preferably) (serum of patient P26 (WDEIA)): More preferably

2435 (KAWSGKTEN; REGION 1..9: note = epitope) [compound 2435]
Epitope sequence binding to IgE antibody, rank of the sequence (Key/Preferably/More preferably) (serum of patient P26 (WDEIA)): Preferably

2436 (WSGKTE; REGION 1..6: note = epitope) [compound 2436]
Epitope sequence binding to IgE antibody, rank of the sequence (Key/Preferably/More preferably) (serum of patient P26 (WDEIA)): Key

2441 (KAWSGK; REGION 1..6: note = epitope) [compound 2441]
Epitope sequence binding to IgE antibody, rank of the sequence (Key/Preferably/More preferably) (serum of patient P28 (WDEIA)): Key

2453 (LKAWSGK; REGION 1..7: note = epitope) [compound 2453]
Epitope sequence binding to IgE antibody, rank of the sequence (Key/Preferably/More preferably) (serum of patient P35 (WDEIA)): Preferably

2460 (LKAWSGK; REGION 1..7: note = epitope) [compound 2460]
Epitope sequence binding to IgE antibody, rank of the sequence (Key/Preferably/More preferably/Further preferably): Further preferably

2461 (LKAWSG; REGION 1..6: note = epitope) [compound 2461]
Epitope sequence binding to IgE antibody, rank of the sequence (Key/Preferably/More preferably/Further preferably): More preferably

2464 (WSGKTENEE; REGION 1..9: note = epitope) [compound 2464]
Epitope sequence binding to IgE antibody, rank of the sequence (Key/Preferably/More preferably/Further preferably): More preferably

2470 (LKAWSGK; REGION 1..7: note = epitope) [compound 2470]
Epitope sequence binding to IgE antibody, rank of the sequence (Key/Preferably/More preferably) [1]: Preferably

2472 (SGKTENEE; REGION 1..8: note = epitope) [compound 2472]
Epitope sequence binding to IgE antibody, rank of the sequence (Key/Preferably/More preferably) [1]: More preferably

2480 (KAWSG; REGION 1..5: note = epitope) [compound 2480]
Epitope sequence binding to IgE antibody, rank of the sequence (Key/Preferably/More preferably) (serum of patient G2 (adult, general immediate type allergy to wheat)): Key

2487 (KAWSGK; REGION 1..6: note = epitope) [compound 2487]
Epitope sequence binding to IgE antibody, rank of the sequence (Key/Preferably/More preferably) [2]: More preferably

2493 (SSQVSF; REGION 1..6: note = epitope) [compound 2493]
Epitope sequence binding to IgE antibody, rank of the sequence (serum of patient P2 (WDEIA)): Preferably

2494 (QVSF; REGION 1..4: note = epitope) [compound 2494]
Epitope sequence binding to IgE antibody, rank of the sequence (serum of patient P2 (WDEIA)): Key

2495 (FQPSQLNPQ; REGION 1..9: note = epitope) [compound 2495]
Epitope sequence binding to IgE antibody, rank of the sequence (serum of patient P2 (WDEIA)): Key

2497 (QVSF; REGION 1..4: note = epitope) [compound 2497]
Epitope sequence binding to IgE antibody, rank of the sequence (serum of patient P7 (WDEIA)): Key

2499 (SQVSF; REGION 1..5: note = epitope) [compound 2499]
Epitope sequence binding to IgE antibody, rank of the sequence (serum of patient P8 (WDEIA)): Preferably

2500 (QVSF; REGION 1..4: note = epitope) [compound 2500]
Epitope sequence binding to IgE antibody, rank of the sequence (serum of patient P8 (WDEIA)): Key

2501 (SFQPSQLNPQ; REGION 1..10: note = epitope) [compound 2501]
Epitope sequence binding to IgE antibody, rank of the sequence (serum of patient P8 (WDEIA)): Key
